Literature values in patent publication US6703346B2, “Herbicide compositions comprising imidazolinone acid, methods of preparation, and methods of use” (Platte Chemical Co., priority 2001, dated 2004).

conditions: general statement, no measurement described

Molecule | pKa
imazamethbenz | approximately 2.9
CCc1cnc(C2=NC(C)(C(C)C)C(=O)N2)c(C(=O)O)c1 (stereo not drawn) [imazethapyr] | approximately 3.9
CC(C)C1(C)N=C(c2nc3ccccc3cc2C(=O)O)NC1=O (stereo not drawn) [imazaquin] | approximately 3.8
